What all share (type): cell-based
In assay [1] the target is T1, NANOLUC-DHFR fusion (Homo sapiens, UniProt P00374).
T1 construct: expressed in transfected cells; host or cells: HEK293
T1 sequence (P00374 1-187): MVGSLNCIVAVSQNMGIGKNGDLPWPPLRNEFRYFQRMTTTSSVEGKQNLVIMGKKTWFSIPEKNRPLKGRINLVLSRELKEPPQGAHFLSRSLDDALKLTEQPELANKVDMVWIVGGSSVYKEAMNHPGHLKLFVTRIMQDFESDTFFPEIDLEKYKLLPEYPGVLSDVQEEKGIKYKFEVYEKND
Put plainly: Binding affinity to DHFR in live cells using BRET. To be noted: HEK293 live cells, 1 μM PBI-4890 tracer, 2 h. The procedure: Binding affinity to DHFR in live cells was tested using BRET. HEK293 cells in wells of a 96-well plate were transfected using PEI with plasmid DNA encoding a NANOLUC-DHFR fusion. The DNA was diluted 1:50 with a promoterless carrier DNA plasmid (PSI) to a final concentration of 80 ng total DNA per well. Twenty-four hours post-transfection, cells were serum starved for additional 24 hours and then treated with serially diluted PBI-4848 or PBI-5015 in the presence of 1 μM PBI-4890 (TOM-methotrexate derivative). After two hours of equilibrium binding, furimazine (a coelenterazine derivative; Promega Corp.) was added to a final concentration of 20 μM, and BRET measured on a Varioskan luminometer.

The target of assay [2] is T2, DHFR (Homo sapiens, UniProt P00374).
T2 construct: isolate, e.g., pull-down, endogenous targets from cells; endogenous in cells; host or cells: HEK293
T2 sequence (P00374 1-187): T1 sequence (P00374 1-187)
Put plainly: Endogenous target pull-down from HEK293 cells, western blot and mass spec (Example 7). To be noted: 10 uM conjugate, listed as Methotrexate-CA. How it is done: HEK293 cells were plated into wells of a 6-well plate (2.5×10^5 cells/well). 48 hours post plating, a final concentration of 10 uM of Methotrexate chloroalkane (PBI-5015) was added to 2 wells while control cells were not treated with the drug conjugate. Following equilibrium binding for 2 h, the media was removed, and the cells quickly washed with PBS and lysed in detergent-based lysis buffer for 10 min. Cell lysates were then transferred to an Eppendorf® tube containing 12.5 ul of settled paramagnetic HALOTAG protein beads and incubated with shaking for 15 min. Following binding, the unbound fraction was removed, the HALOTAG paramagnetic beads washed 3×, and the captured targets specifically released from the beads by competition with 150 μM unconjugated methotrexate for 60 mins. The released targets were subjected to mass spec analysis as well as western blot analysis using an anti-DHFR antibody (Sigma).
On the technique in general: In western blotting, separated proteins are transferred to a membrane and probed.

For assay [3], the target named is T1, NANOLUC-DHFR fusion. Put plainly: Pull-down of NANOLUC:DHFR from live HEK293 cells onto HALOTAG protein beads. To be noted: 10 μM conjugate, release with 150 μM methotrexate. The procedure:
The DNA was diluted 1:50 with a promoterless carrier DNA plasmid (PSI) to a final concentration of 80 ng total DNA per well. Twenty-four hours post-transfection, cells were serum starved for additional 24 h and then incubated with 10 μM PBI-4848 or PBI-5015 while control cells were not treated with the conjugated drug. Following equilibration binding of 2 h, the media was removed, and the cells quickly washed with PBS and lysed in detergent-based lysis buffer for 10 min. Cell lysates were then transferred to wells of a 96-well plate containing 0.5 μl settled paramagnetic HALOTAG protein beads and incubated with shaking for 45 min. Following binding, the unbound fraction was removed, the HALOTAG protein paramagnetic beads washed, 150 μM unconjugated methotrexate added, and the captured NANOLUC:DHFR specifically released from the beads by competition with the unconjugated methotrexate for 60 min. The released NANOLUC:DHFR (+PBI5015 or +PBI 4848) and control samples were detected by NANOGLO luciferase detection reagent.

For assay [4], the system named is HDAC1, HDAC2, HDAC3, HDAC6, HDAC8. Put plainly: Endogenous target pull-down from HEK293 cells, western blot and mass spec (Example 11). To be noted: 20 uM conjugate. The procedure: HEK293 cells were plated in 100 mm dishes at 2×10^5 cells/ml. Forty-eight hours post plating, a final concentration of 20 uM SAHA-chloroalkane (PBI-5040) was added to 3 of the dishes (1×10^7 cells/dish), while 3 other dishes were not treated with the conjugated drug (control). Following equilibrium binding for 2 hours, the media was removed, the cells quickly washed with PBS, lysed in a detergent-based lysis buffer for 10 minutes and centrifuged at 3000×g for 1 minute. The cleared lysates were than added to 75 ul of settled paramagnetic HALOTAG beads and incubated with shaking for 15 minutes. Following binding, the unbound fraction was removed, the HALOTAG paramagnetic beads were washed 3× (wash buffer—50 mM HEPES pH7.5, 150 mM NaCl and 0.01% IGEPAL), and the captured targets specifically released from the beads by competition with 400 μM unconjugated SAHA for 60 minutes. The released targets were subjected to mass spec analysis (FIG. 11B) as well as western blot analysis (FIG. 1-A) with anti HDAC1 antibody (ABCAM); anti HDAC2 antibody (ABCAM); anti HDAC6 antibody (Millipore); anti HDAC3 antibody (Thermo Fisher) and anti HDAC8 antibody (Rockland/Promega).

The test system is the same in assay [5]. Put plainly: Endogenous target pull-down from K562 cells, western blot (Example 13). To be noted: 20 uM conjugate. How it is done: K562 cells were plated in 150 mm dishes at 5×10^7 cells/dish. A final concentration of 20 uM SAHA chloroalkane (PBI-5040) or PBI-5475 (SAHA-biotin) was added to 2 dishes of cells while 2 other dishes of cells were not treated with the conjugated drug (control). Following equilibrium binding of 2 hours, the media was removed, the cells quickly washed with PBS and lysed in detergent-based lysis buffer for 10 minutes and centrifuged at 3000×g for 1 minute. The cleared lysates treated with PBI-5040, as well as the cleared lysates of the control cells, were added to 75 ul of settled paramagnetic HALTOG beads. The cleared lysates of the cells treated with PBI-5475, as well as the cleared lysate of the control cells, were added to 75 ul of settled paramagnetic Streptavidin beads (GE). Following 15 minutes of binding, the unbound fraction was removed, beads were washed 3×, and the captured targets specifically released from the beads by competition with 400 μM unconjugated SAHA for 60 minutes. The released targets were subjected to western blot analysis (FIG. 13) with anti HDAC1 antibody (ABCAM); anti HDAC2 antibody (ABCAM); anti HDAC6 antibody (Millipore); anti HDAC3 antibody (Thermo Fisher) and anti HDAC8 antibody (Rockland/Promega).

Assay [6] concerns intracellular HDAC activity. Nature of the assay: Intracellular HDAC activity, non-lytic HDAC-Glo I/II assay, K562 cells (Example 12). The settings on record: 2 hours treatment. The procedure: K562 cells were plated in serum free RPMI 1640 media into wells of a 96-well plate at 2×10^5 cells/ml. Cells were then treated with serial dilution of SAHA, PBI-5040 (SAHA-chloroalkane) or PBI 5475 (SAHA-biotin) for 2 hours and then tested for intracellular HDAC activity using the non-lytic HDAC-Glo™ I/II assay (Promega Corporation) according to manufacturer's instructions.

Assay [7] deals with intracellular HDAC activity. Nature of the assay: Intracellular HDAC activity, non-lytic HDAC-Glo I/II assay, HEK293 and K562 cells (Example 10). To be noted: 2 hours treatment, relative to SAHA. The procedure: HEK293 cells were plated in a 96-well plate at 1×10^5 cell/ml in DMEM+10% serum, and 24 hours later, the media was replaced with serum free DMEM media. K562 cells were plated in serum free RPMI 1640 media into wells of a 96-well plate at 2×10^5 cells/ml. Cells were treated with serial dilutions of SAHA or PBI-5040 (SAHA-chloroalkane) for 2 hours and then tested for intracellular HDAC activity using the non-lytic HDAC-Glo™ I/II assay (Promega Corporation) according to manufacturer's instructions. […] The ˜2-fold reduction in SAHA potency due to the chloroalkane modification indicates minimal impact of the chloroalkane on cellular permeability or potency.

The structures appear in SMILES notation.

Regarding `CN(Cc1cnc2nc(N)nc(N)c2n1)c1ccc(C(=O)NC(CCC(=O)NCCOCCOCCCCCCCl)C(=O)O)cc1` (stereo not shown) [PBI-4848], the “affinity to DHFR (dose-response BRET curves)” value in assay [1] is listed as “higher affinity to DHFR”.
In the case of `CN(Cc1cnc2nc(N)nc(N)c2n1)c1ccc(C(=O)NC(CCC(=O)NCCCCCNC(=O)OCCOCCOCCOC(=O)NCCOCCOCCCCCCCl)C(=O)O)cc1` (stereo not shown) [PBI-5015], the “pull-down of endogenous DHFR” value in assay [2] was “specific pull down of DHFR”. Further, the “pull-down of Nluc:DHFR fusion” value in assay [3] is given as “efficiently pulled down the Nluc:DHFR fusion”. For the same compound, in assay [1], the “affinity to DHFR (dose-response BRET curves)” value is reported as “lower affinity to DHFR”.
Regarding `O=C(CCCCCCC(=O)Nc1ccc(CNC(=O)OCCOCCOCCOC(=O)NCCOCCOCCCCCCCl)cc1)NO` [PBI-5040], the “pull-down of endogenous SAHA targets (HDACs)” value in assay [4] is “all known targets of SAHA, including low affinity target (HDAC8) and low abundance target (HDAC3), can be specifically pull down”; in assay [4] (listed as SAHA-CA), “specific pull down of all known targets”; in assay [5] (listed as SAHA-CA) it was “specific pull down of all known targets of SAHA”; in assay [5] (listed as SAHA-chloroalkane), “all known targets of SAHA, including a low affinity target (HDAC8) and a low abundance target (HDAC3), were specifically pulled down”. Further, in assay [6], the “reduction in potency relative to SAHA” value is recorded as ~2 fold. The “reduction in SAHA potency due to the chloroalkane modification” value in assay [7] is reported as ~2 fold.
